{"source": "patent US20130309306A1", "about": "“INTRAPULMONARY BENZODIAZEPINE FOR THE TREATMENT AND PREVENTION OF SEIZURES” (priority 2010, published 2013)", "tested_on": "PTZ-induced seizures", "test": "PTZ seizure threshold test, tonic extension endpoint, Example 2", "format": "in vivo, mice", "description": "NIH Swiss mice (22-30 g) were kept in a vivarium under controlled environmental conditions (temperature, 22-26° C.; humidity, 40-50%) with an artificial 12-h light/dark cycle. Wood chips were used in all cages. Experiments were performed during the light phase of the light/dark cycle after a minimum 30-min period of acclimation to the experimental room. The animal facilities were fully accredited by the Association for Assessment and Accreditation of Laboratory Animal Care. All studies were performed under protocols approved by the Animal Care and Use Committee of the University of California, Davis in strict compliance with the Guide for the Care and Use of Laboratory Animals of the National Research Council (National Academy Press, Washington, D.C.; on the internet at nap.edu/readingroom/books/labrats/).\nMidazolam was administered as a commercially available injectable solution (midazolam hydrochloride, 10 mg/10 ml; APP Pharmaceuticals, Schaumburg, Ill., USA) containing sodium chloride (0.8% w/v), disodium edetate (0.01% w/v), benzyl alcohol as preservative (1% v/v) with HCl to adjust the pH 3-3.6. Pentylenetetrazol (PTZ) (Sigma-Aldrich, St. Louis, Mo., USA) was dissolved in 0.9% w/v saline. The remaining test substances were all obtained from Tocris Bioscience (Ellisville, Mo., USA) except for clonazepam, which was from Sigma-Aldrich. Finasteride was dissolved in 25% hydroxypropyl-β-cyclodextrin (Trappsol; Cyclodextrin Technologies Development, High Springs, Fla., U.S.A.). Metyrapone was dissolved in double distilled water and PK 11195 and clonazepam were suspended in 1% Tween 80 and adjusted to volume with saline.\nPTZ seizure threshold was determined according to a protocol used previously in our laboratory (Dhir et al., 2011). Intravenous PTZ elicits a sequence of seizure signs beginning with twitch and progressing to clonus and tonic limb extension. In the present study, tonic extension was used as the endpoint. […] It is noteworthy that this is the endpoint originally used in studies characterizing the actions of midazolam against PTZ seizures in mice (Pieri, 1983 Br J Clin Pharmacol 16 Suppl 1: 17S-27S). A 27 gauge-¾ inch “butterfly” needle was inserted into the lateral tail vein and the needle was secured with a narrow piece of adhesive tape. The animal was placed inside a 2 L glass beaker with free aeration from the top and allowed to move freely. The needle was connected by polyethylene tubing to a Beckton, Dickinson 1 ml syringe mounted on an infusion pump (Model ‘11’ plus syringe pump; Harvard Apparatus, Holliston, Mass.). PTZ solution (10 mg/ml) was infused at a constant rate of 0.5 ml/min. The infusion was stopped at 3 min or at the onset of tonic extension, whichever occurred first. The threshold value (mg/kg) for tonic extension was determined according to the formula: (infusion duration [sec]×infusion rate [ml/min]×PTZ concentration [mg/ml]×1000)/(60 [sec]×weight of mouse [g]).\nIn an initial experiment, the dose-response relationship for midazolam elevation of seizure threshold was assessed at doses of 100 μg/kg to 5 mg/kg (15 min pretreatment time). […] PK 11195 was used at a dose (15 mg/kg) as in the study of Ugale et al. (2004 Brain Res. 2004 Oct. 8; 1023(1):102-11). Clonazepam was administered at a dose of 100 μg/kg (Akula et al., 2009). The volume of all intraperitoneal injections was 10 ml/kg.\nResults are expressed as mean±S.E.M.; the significance of the difference in the responses of treatment groups with respect to control is based on one-way analysis of variance (ANOVA) followed by specific post-hoc comparisons using Tukey's test. Differences are considered statistically significant when the probability of type I error was less than 0.05."}
{"smiles": "CCC(C)N(C)C(=O)c1cc2ccccc2c(-c2ccccc2Cl)n1", "note": "(centres unmarked) [PK 11195, 1-(2-chlorophenyl)-N-methyl-N-(1-methylpropyl)-3-isoquinolinecarboxamide]", "values": [{"measurement": "PTZ seizure threshold, by itself", "setting": "PK 11195 15 mg/kg i.p.", "result": "did not affect the seizure threshold"}, {"measurement": "effect on seizure threshold elevation produced by clonazepam", "setting": "PK 11195 15 mg/kg i.p. 30 min before clonazepam (FIG. 11 lower panel)", "result": "did not reduce the seizure threshold elevation"}, {"measurement": "effect on threshold elevation produced by midazolam", "setting": "PK 11195 15 mg/kg i.p. 30 min before midazolam 500 μg/kg i.p. (FIG. 10)", "result": "significantly reduced the elevation in threshold"}]}
{"smiles": "O=C1CN=C(c2ccccc2Cl)c2cc([N+](=O)[O-])ccc2N1", "note": "[clonazepam]", "values": [{"measurement": "increase in threshold for tonic extension (vs vehicle only control)", "setting": "clonazepam 100 μg/kg i.p., 15 min before i.v. PTZ infusion, in the absence of finasteride", "result": 2.8, "unit": "fold"}]}
{"smiles": "CC(C)(C)NC(=O)[C@H]1CC[C@H]2[C@@H]3CC[C@H]4NC(=O)C=C[C@]4(C)[C@H]3CC[C@]12C", "note": "[finasteride]", "values": [{"measurement": "effect on threshold elevation caused by intratracheal midazolam", "setting": "finasteride 100 mg/kg i.p. 5 min before midazolam 100 μg/kg intratracheal (FIG. 13)", "result": "did significantly reduce the threshold elevation"}, {"measurement": "effect on threshold elevation caused by midazolam", "setting": "finasteride 100 mg/kg i.p. 5 min before midazolam 500 μg/kg i.p. (FIG. 8)", "result": "partially reduce the threshold elevation"}, {"measurement": "effect on seizure threshold elevation produced by clonazepam", "setting": "finasteride 100 mg/kg i.p. before clonazepam 100 μg/kg i.p. (FIG. 11 upper panel)", "result": "did reduce the seizure threshold elevation"}, {"measurement": "PTZ seizure threshold, pretreatment by itself", "setting": "finasteride 100 mg/kg i.p., no midazolam (FIG. 8)", "result": "did not alter the PTZ seizure threshold"}, {"measurement": "PTZ seizure threshold, pretreatment by itself", "setting": "finasteride 50 and 100 mg/kg i.p. (FIG. 13)", "result": "did not alter the PTZ seizure threshold"}, {"measurement": "effect on seizure threshold elevation produced by clonazepam", "setting": "finasteride before lower dose of clonazepam 25 μg/kg", "result": "trend toward an effect of finasteride, although it did not reach statistical significance"}]}
{"smiles": "CCOC(=O)c1ncn2c1CN(C)C(=O)c1cc(F)ccc1-2", "note": "[flumazenil]", "values": [{"measurement": "effect on threshold elevation caused by intratracheal midazolam", "setting": "flumazenil 5 mg/kg i.p. 5 min before midazolam 100 and 200 μg/kg intratracheal (FIG. 12)", "result": "did abolish the threshold elevation"}, {"measurement": "PTZ seizure threshold, pretreatment by itself", "setting": "flumazenil 5 mg/kg i.p. (FIG. 12)", "result": "did not alter the PTZ seizure threshold"}]}
{"smiles": "CC(C)(C(=O)c1cccnc1)c1cccnc1", "note": "[metyrapone]", "values": [{"measurement": "PTZ seizure threshold when administered prior to midazolam", "setting": "metyrapone 100 mg/kg i.p. 15 min before midazolam 500 μg/kg i.p. (FIG. 9)", "result": "further increment in threshold"}, {"measurement": "PTZ seizure threshold, by itself", "setting": "metyrapone 100 mg/kg i.p. (FIG. 9)", "result": "significant elevation in the threshold"}]}
